Values of other authors as cited in PMC7247160, “Inhibitors of DNA Glycosylases as Prospective Drugs” (International Journal of Molecular Sciences, 2020).
Like-named read-outs stand apart in the source and are kept apart here.

What was measured:
NEIL1 = details: NEIL1, human; read-out: I50
UNG [1] = details: for IC50: UNG, human, read-out: I50
MutY = details: read-out: Kd or Ki directly measured
Fpg [2] = details: for Fpg inhibition (in words): free damaged base analogs
UNG [3] = system: UNG
OGG1 [4] = details: OGG1, human; read-out: I50
Fpg [5] = details: E. coli
UNG [6] = molecular target: UNG; remark: listed apart in the source
MTH1 = details: MTH1, human; read-out: I50
Nei2 = system: Nei2; design: method as in PMID 28955788; details: Nei2, Mycobacterium tuberculosis
UNG [7] = system: UNG; design: method as in PMID 23400284; details: species not specified, read-out: I50
NEIL2 = system: NEIL2; design: method as in PMID 23138988; details: NEIL2, human; read-out: I50
NTHL1 = system: NTHL1; design: method as in PMID 23138988; details: NTHL1, human; read-out: I50
OGG1 [8] = system: OGG1; design: method as in PMID 30442810; details: mouse model
OGG1 [9] = system: OGG1; design: method as in PMID 30442810; details: OGG1, mouse; read-out: I50
Fpg [10] = system: Fpg; design: method as in PMID 25143530; details: Lactococcus lactis, read-out: I50
MPG = system: MPG; design: method as in PMID 25650313; details: human, read-out: I50
D4/A20 complex = details: UNG (D4), vaccinia virus; read-out: IC50 for DNA polymerase activity in the presence of the D4/A20 complex
[11] = read-out: Kd or Ki directly measured

In the case of `Cc1nc2ccc(Nc3nc(Nc4c(C)cc(/C=C/C#N)cc4C)nc4[nH]cnc34)cc2s1` [C00028 R = C00030], the IC50 (NEIL1) is given as 7.9 µM.

For `O=C(O)c1cccc(/C=N/OCC(CO/N=C/c2cccc(C(=O)O)c2)CO/N=C/c2cc(=O)[nH]c(=O)[nH]2)c1` [C00009 R1 = R2 = 3-carboxyphenyl], the IC50 (UNG [1]; triskelion inhibitors) is listed as 1.7 µM.

In the case of `Cc1ccc(C(=O)Nc2ccc(S(=O)(=O)O)c3cc(S(=O)(=O)O)cc(S(=O)(=O)O)c23)cc1NC(=O)c1cccc(NC(=O)Nc2cccc(C(=O)Nc3cc(C(=O)Nc4ccc(S(=O)(=O)O)c5cc(S(=O)(=O)O)cc(S(=O)(=O)O)c45)ccc3C)c2)c1` [suramin], the Kd (MutY) is given as 16 µM.

In the case of `CN(C=O)c1c(N)nc(N)[nH]c1=O` [2,6-diamino-4-oxo-5-(N-methylformamido)pyrimidine], the “Fpg inhibition (in words)” value (Fpg [2]) is listed as “weakly inhibited”.

For `Cc1cc(/C=C/C#N)cc(C)c1Nc1nc(Nc2ccc3scnc3c2)c2nc[nH]c2n1` [C00028 R = C00029], the IC50 (NEIL1) is listed as 4 µM.

For `CCCCCCCCc1ccc(Nc2cc(=O)[nH]c(=O)[nH]2)cc1` [C00001 R1 = n-octyl R2 = H, 6-(p-n-octylanilino)uracil], the IC50 (UNG [1]) is listed as over 300 µM, the IC50 (UNG [3]; UNG, HSV1, read-out: I50) is listed as 8 µM and the IC50 (UNG [3]; herpes simplex type 1 UNG, read-out: IC50 for the viral enzyme) is listed as about 8 µM.

For `Cc1cc(/C=C/C#N)cc(C)c1Nc1nc(Nc2ccc3c(c2)OCO3)c2nc[nH]c2n1` [C00028 R = C00032], the IC50 (NEIL1) is listed as 10 µM.

For `O=c1cc(/C=N/OCCCO/N=C/c2ccc(O)c(O)c2)[nH]c(=O)[nH]1` [C00002 R = H], the IC50 (UNG [1]; bipartite inhibitors) is listed as 1.1 µM.

In the case of `O=C(O)c1ccc(C=NOCCON=Cc2cc(=O)[nH]c(=O)[nH]2)cc1` [C00003 R1 = C00008 R2 = H, R3 = COOH], the IC50 (UNG [1]; bipartite inhibitors) is given as 6 µM.

In the case of `NNC(=O)c1sc2cccc(Cl)c2c1Cl` [C00018], the IC50 (OGG1 [4]) is given as 0.22 µM.

For `Cc1cc(/C=C/C#N)cc(C)c1Nc1nc(Nc2ccc3c(c2)CCC3)c2nc[nH]c2n1` [C00028 R = C00031], the IC50 (NEIL1) is given as 8.9 µM.

In the case of `Nc1c(S(=O)(=O)O)cc(Nc2ccc(Nc3nc(Cl)nc(Nc4ccccc4S(=O)(=O)O)n3)c(S(=O)(=O)O)c2)c2c1C(=O)c1ccccc1C2=O` [Cibacron Blue F3GA], the Ki (Fpg [5]; [11]) is listed as 0.005 µM.

In the case of `O=C(O)c1cccc(C=NOCCCNCc2cc(=O)[nH]c(=O)[nH]2)c1` [C00003 R1 = C00005 R2 = COOH, R3 = H], the IC50 (UNG [1]; bipartite inhibitors) is listed as 1.6 µM.

In the case of `N#C[C@]1(n2ccc(=O)[nH]c2=O)C[C@H](O)[C@@H](COP(=O)(O)OP(=O)(O)OP(=O)(O)O)O1` [1′-cyano-2′-deoxyuridine triphosphate], the Ki (UNG [1]; human UNG, nucleotide incorporated into DNA) is listed as “nanomolar” and the Ki (UNG [6]; E. coli Ung, nucleotide incorporated into DNA) is listed as “nanomolar”.

For `O=c1cc(/C=N/OCCCO/N=C/c2cc(O)c(O)cc2Br)[nH]c(=O)[nH]1` [C00002 R = Br], the IC50 (UNG [1]; bipartite inhibitors) is listed as 40 µM.

In the case of `O=C(O)c1cccc(C=NOCCON=Cc2cc(=O)[nH]c(=O)[nH]2)c1` [C00003 R1 = C00004 R2 = COOH, R3 = H], the IC50 (UNG [1]; bipartite inhibitors) is listed as 40 µM.

For `O=c1cc(/C=N/OCC(CO/N=C/c2ccc(O)c(O)c2)CO/N=C/c2cc(=O)[nH]c(=O)[nH]2)[nH]c(=O)[nH]1`, the IC50 (UNG [1]; triskelion inhibitors) is listed as 0.9 µM.

For `O=c1cc(/C=N/OCC(CO/N=C/c2ccc(O)c(O)c2)CO/N=C/c2ccc(O)c(O)c2)[nH]c(=O)[nH]1` [C00009 R1 = R2 = 3,4-dihydroxyphenyl], the IC50 (UNG [1]; triskelion inhibitors) is listed as 1.6 µM.

For `O=c1cc(/C=N/OCCCO/N=C/c2cc(O)c(O)cc2[N+](=O)[O-])[nH]c(=O)[nH]1` [C00002 R = NO2], the IC50 (UNG [1]; bipartite inhibitors) is given as 40 µM.

For `NC(=O)c1cccc(-c2ccc(S(=O)(=O)Nc3ccc4c(c3)N(C(=O)C3CC3)CCC4)cc2)c1` [C00025], the IC50 (OGG1 [4]) is listed as 0.059 µM.

In the case of `O=c1cc(/C=N/OCCCO/N=C/c2cc(O)c(O)cc2O)[nH]c(=O)[nH]1` [C00002 R = OH], the IC50 (UNG [1]; bipartite inhibitors) is listed as 0.26 µM.

For `Cc1cnc(N)nc1CCCNC(=O)c1cccc(-c2ccc(S(=O)(=O)Nc3ccc4c(c3)N(C(=O)C3CC3)CCC4)cc2)c1` [SU0383], the IC50 (OGG1 [4]) is listed as 0.49 µM and the IC50 (MTH1) is listed as 0.034 µM.

For `CCCCCc1cc(O)cc2c1Oc1cc(O)cc(C(=O)CCCC)c1C(=O)O2` [norlobaric acid], the IC50 (Nei2; read-out: I50) is given as 42 µM and the Ki (Nei2; [11]) is given as 0.074 µM.

For gentamicin, the IC50 (UNG [6]; UNG, E. coli, read-out: I50) is listed as 420 µM and the IC50 (UNG [7]) is listed as 1500 µM.

For `O=C(O)c1cccc(CNCCCCNCc2cc(=O)[nH]c(=O)[nH]2)c1` [C00003 R1 = C00007 R2 = COOH, R3 = H], the IC50 (UNG [1]; bipartite inhibitors) is listed as 315 µM.

For `O=C(O)/C=C/C(=O)CC(=O)CC(=O)O` [Fumarylacetoacetate], the IC50 (NEIL1) is listed as 0.006 µM, the IC50 (NEIL2) is listed as 0.032 µM and the IC50 (OGG1 [4]) is listed as 1 µM. For the same compound, the IC50 (NTHL1) was 1 µM.

For `CCn1cnc2c(Nc3cccc(C)c3)nc(N[C@@H]3CCCC[C@@H]3N)nc21` [C00027], the IC50 (NEIL1) is given as 25 µM.

In the case of `O=C(Nc1ccc(I)cc1)N1CCC(n2c(=O)[nH]c3c(Br)cccc32)CC1` [TH5487], the “Effect on inflammatory response” value (OGG1 [8]) is listed as “downregulates the inflammatory response” and the IC50 (OGG1 [9]) is listed as 0.34 µM.

For `Nc1cc(=O)[nH]c(N)c1N=O` [5-nitroso-4,6-diamino-2-oxopyridine], the “Fpg inhibition (in words)” value (Fpg [2]) is listed as “weakly inhibited”.

For `Nc1cc(N)c(N=O)c(N)n1` [5-nitroso-2,4,6-triaminopyridine], the “Fpg inhibition (in words)” value (Fpg [2]) is given as “weakly inhibited”.

For `O=C(O)c1cccc(/C=N/OCC(CO/N=C/c2cc(=O)[nH]c(=O)[nH]2)CO/N=C/c2cc(=O)[nH]c(=O)[nH]2)c1`, the IC50 (UNG [1]; triskelion inhibitors) is given as 0.9 µM.

For `O=c1cc(/C=N/OCCCO/N=C/c2cc(O)c(O)cc2Cl)[nH]c(=O)[nH]1` [C00002 R = Cl], the IC50 (UNG [1]; bipartite inhibitors) is given as 16 µM.

For 2-thioxanthine, the IC50 (Fpg [5]; read-out: I50) is given as 17 µM, the IC50 (Fpg [10]) is given as 100 µM and the IC50 (Fpg [2]; oxidizes zinc finger cysteines, not a true inhibitor, read-out: IC50, ability to suppress Fpg activity) is given as 10 to 100 µM.

In the case of `O=C(NN=C1CCCCC1)c1cc2ccccc2cc1O` [C00022], the IC50 (OGG1 [4]) is given as 0.34 µM.

In the case of `O=C(O)c1cccc(CNCCCON=Cc2cc(=O)[nH]c(=O)[nH]2)c1` [C00003 R1 = C00006 R2 = COOH, R3 = H], the IC50 (UNG [1]; bipartite inhibitors) is listed as 100 µM.

In the case of `O=c1c(O)c(-c2ccc(O)cc2O)oc2cc(O)cc(O)c12` [Morin], the IC50 (MPG) is given as 2.6 µM.

In the case of `O=c1cc(/C=N/OCCCO/N=C/c2cc(O)c(O)cc2F)[nH]c(=O)[nH]1` [C00002 R = F], the IC50 (UNG [1]; bipartite inhibitors) is listed as 2.7 µM.

In the case of `Oc1ccc(NCc2ccccc2OCc2ccccc2)cc1` [C00012], the IC50 (D4/A20 complex) is given as 5.1 µM.
